# Experimental data: US20030054980A1, “Ceruloplasmin and uses thereof in neurodegenerative related conditions” (priority 2000, published 2003)
# B1: Bovine serum amineoxidase: 180 kDa circulating non-blue copper protein (protein, UniProt Q29437 17-762, looked up)
# Primary amine oxidase, liver …: REEGGVGSEEGVGKQCHPSLPPRCPSRSPSDQPWTHPDQSQLFADLSREELTTVMSFLTQQLGPDLVDAAQARPSDNCVFSVELQLPPKAAALAHLDRGSPPPAREALAIVFFGGQPQPNVTELVVGPLPQPSYMRDVTVERHGGPLPYYRRPVLLREYLDIDQMIFNRELPQAAGVLHHCCSYKQGGQKLLTMNSAPRGVQSGDRSTWFGIYYNITKGGPYLHPVGLELLVDHKALDPADWTVQKVFFQGRYYENLAQLEEQFEAGQVNVVVIPDDGTGGFWSLKSQVPPGPTPPLQFHPQGPRFSVQGNRVASSLWTFSFGLGAFSGPRVFDVRFQGERLAYEISLQEAGAVYGGNTPAAMLTRYMDSGFGMGYFATPLIRGVDCPYLATYMDWHFVVESQTPKTLHDAFCVFEQNKGLPLRRHHSDFLSHYFGGVAQTVLVFRSVSTMLNYDYVWDMVFYPNGAIEVKLHATGYISSAFLFGAARRYGNQVGEHTLGPVHTHSAHYKVDLDVGGLENWVWAEDMAFVPTAIPWSPEHQIQRLQVTRKQLETEEQAAFPLGGASPRYLYLASKQSNKWGHPRGYRIQTVSFAGGPMPQNSPMERAFSWGRYQLAITQRKETEPSSSSVFNQNDPWTPTVDFSDFINNETIAGKDLVAWVTAGFLHIPHAEDIPNTVTVGNGVGFFLRPYNFFDQEPSMDSADSIYFREGQDAGSCEINPLACLPQAATCAPDLPVFSHGGYPEY
# B2: SBTI: soybean trypsin inhibitor, serine protease inhibitor (protein, UniProt P01070 25-205, looked up)
# Trypsin inhibitor A: DFVLDNEGNPLENGGTYYILSDITAFGGIRAAPTGNERCPLTVVQSRNELDKGIGTIISSPYRIRFIAEGHPLSLKFDSFAVIMLCVGIPTEWSVVEDLPEGPAVKIGENKDAMDGWFRLERVSDDEFNNYKLVFCPQQAEDDKCGDIGISIDHDDGTRRLVVSKNKPLVVQFQKLDKESL
# How the values were obtained:
# [1] = system: P19 neurons; test: Pro-aggregative effect on P19 neurons (culture morphology, surfaces not occupied by cells); details: for Morphological change: 24 h; for induction of neuronal aggregation (text summary of Table 1): concentrations of Table 1, copper equivalent to (His2Cu: or higher than) that in CP
# Method: Undifferentiated P19 cells were propagated in complete medium containing alpha-modified Eagle's minimal essential medium (α-MEM; Gibco-BRL, Burlington, Ontario) supplemented with 10% heat-inactivated fetal bovine serum (Cansera International, Rexdale, Ontario), 2.5 U/mL penicillin and 2.5 μg/mL streptomycin (Sigma-Aldrich). Cells were maintained at 37° C. in a humidified atmosphere of 5% CO2 and passaged every two days on non-coated tissue culture dishes. To achieve neuronal differentiation, P19 cells were seeded in bacteriological-grade petri dishes at a density of 0.9×10^5 cells/mL, and grown as aggregates, during 4 days, in complete medium containing 0.5 μM RA (Sigma-Aldrich). At day 4, aggregates were dissociated by incubation for 3 min, at room temperature, with 0.025% trypsin (250 Nα-benzoyl-L-Arg-ethyl ester (BAEE) unit per 15×10^6 cells; Sigma-Aldrich) in phosphate buffer saline (PBS) containing 1 mM EDTA, and digestion stopped by adding an equal volume of complete α-MEM medium. The resulting cellular suspensions were passaged by pipetting and subjected to two wash-and-centrifuge cycles, and individualized cells (neurons) were transferred (1500-1800 cells/mm^2) to gelatinized tissue culture dishes or multiwell plates containing NEUROBASAL™ medium (Gibco-BRL) supplemented with B27™ supplement (Gibco-BRL) and 0.5 mM L-glutamine, but no RA. Gelatinization of culture surfaces was done by incubation with 0.1% gelatin for 0.5 h at 22° C., followed by several washes with PBS to remove unbound protein. For comparison purposes, solutions of 2% gelatin, 10 μg/mL fibronectin, 10 μg/mL laminin and 5 mg/mL CP (in this case, in a proportion of 50 μL per cm^2) were also used for coating. Differentiation to fibroblasts was done by culturing P19 cells as monolayers, for 4 days, in complete medium containing RA. Cells were trypsinized every 2 days and replated in non-coated tissue culture dishes each time. From day 4 and after, cells were cultured in complete medium without RA.
# At 3, 24 or 48 h after plating, P19 neurons were incubated for 24 h in a fresh provision of supplemented Neurobasal medium not containing (control) or containing CP or another agent. Protease inhibitors were added 1 h before CP. Freshly individualized cells of the other cell types tested were let to adhere to culture surfaces, in their normal culture medium (containing serum), for times indicated: undifferentiated P19 cells and their fibroblast derivatives (both for 3 and 24 h), rat smooth muscle cells (7 days), and rat hepatocytes (3 h). Afterwards, cells were extensively rinsed with PBS and incubated for 24 h in supplemented Neurobasal medium in the absence or presence of CP. After treatment with CP or other agents, cells were examined for morphology, viability, ALAMARBLUE™ dye penetration and/or apoptosis, as indicated below.
# Morphological analysis was done by inversion microscopy (NIKKON™ TMS), using phase-contrast objectives and a camera (NIKKON™ F70).
# [2] = system: resorufin-labeled casein; test: Detection of proteolytic activity with resorufin-labeled casein; format: biochemical; details: culture media conditioned by cells, in all cases
# Method: Evaluation of proteolytic activity in CP preparations or in cell culture media was done with resorufin-labeled casein (universal protease chromogenic substrate; Roche Diagnostics). Aliquots (100 μL) of CP solutions (about 13 mg/mL) or of culture media of cells after 24 h treatment with and without CP were incubated at 37° C. for various times (up to 22 h), with 50 μL of resorufin-labeled casein solution provided by the manufacturer and 50 μL of 0.2 M Tris-HCl, pH 7.8 containing 0.02 M CaCl2. The reaction was stopped by adding 480 μL of 5% trichloroacetic acid. After 10 min of incubation at 37° C. and 5 min of centrifugation, 400 μL of the resulting supernatants were mixed with 600 μL of 0.5 M Tris-HCl, pH 8.8, and absorbance read at 574 nm. Alternately, resorufin-labeled casein was added to culture media (50 μL substrate for each 150 μL supplemented NEUROBASAL™ medium) while cells were being treated with CP. Culture media were removed at various times (up to 24 h) and subjected to acid precipitation and spectrophotometric measurement as indicated above. Trypsin (10100 U BAEE/mg; Sigma-Aldrich) was used as a standard.
# [3] = system: P19 neurons; test: Inhibition of CP-induced neuronal aggregation; format: cell-based, mouse; details: for inhibition of CP-induced aggregation, inhibitors tested individually: 6-7 TIU/mL or half this concentration, 3.8 μM CP; for inhibition of CP-induced neuronal aggregation: 6-7 trypsin inhibitory U/mL each, added 1 h before 3.8 μM CP, morphology and dye penetration analysis
# Method: Protease inhibitors were added 1 h before CP.
# Day 4 P19 neurons were plated in 24- or 48-well plates in prevision of dye penetration analysis. After treatment with CP or other agents, cells were incubated for 5 h with 500 μL of a solution containing one part of ALAMARBLUE™ (Medicorp Inc., Montreal, Quebec, Canada) and nine parts of fresh supplemented Neurobasal medium. This dye is reduced to a fluorescent derivative by metabolic activity of living cells. At the end of incubation, the fluorescence of the culture medium was monitored at 590 nm, using 540 nm as the excitation wavelength.
# [4] = 1.14 to 49.2 μM, day 4 P19 neurons on gelatin
molecule,measurement,setting,value
O=S(=O)([O-])[O-].[Cu+2] [CuSO4],Morphological change,[1]; 246 μM,cell death
same,Morphological change,[1]; [4],no aggregation
same,induction of neuronal aggregation (text summary of Table 1),[1],did not induce neuronal aggregation
"[Cl][Cu][Cl] [CuCI2, CuCl2]",Morphological change,[1]; 246 μM,cell death
same,Morphological change,[1]; [4],no aggregation
same,induction of neuronal aggregation (text summary of Table 1),[1],did not induce neuronal aggregation
aprotinin,hydrolysis of resorufin-labeled casein,[2],completely abolished hydrolysis
same,"inhibition of CP-induced aggregation, inhibitors tested individually",[3],Complete inhibition of aggregation
same,inhibition of CP-induced neuronal aggregation,[3],completely hindered
NC(Cc1c[nH]cn1)C(=O)[O-].NC(Cc1c[nH]cn1)C(=O)[O-].[Cu+2] (stereo not shown) [(His)2Cu complex],Morphological change,[1]; 23 to 390 μM,no aggregation
same,induction of neuronal aggregation (text summary of Table 1),[1],did not induce neuronal aggregation
Bovine serum albumin: serum protein that can transport copper ions,Morphological change,[1]; 0.3 to 7.5 μM,no aggregation
same,induction of neuronal aggregation (text summary of Table 1),[1],failed to induce-aggregation
same,inhibition of CP-induced neuroaggregation,[3]; albumin at 3.6 μM,did not inhibit
B1,Morphological change,[1]; 0.28 to 0.56 μM,no aggregation
same,induction of neuronal aggregation (text summary of Table 1),[1],did not induce aggregation
B2,hydrolysis of resorufin-labeled casein,[2],completely abolished hydrolysis
same,"inhibition of CP-induced aggregation, inhibitors tested individually",[3],Complete inhibition of aggregation
same,inhibition of CP-induced neuronal aggregation,[3],completely hindered
